Measured values published in patent publication US10336739B2, “4-hydroxy-3-(heteroaryl)pyridine-2-one APJ agonists” (BRISTOL-MYERS SQUIBB COMPANY, priority 2015, dated 2019).

The compounds below were run against human APJ receptor (Homo sapiens (Human), UniProt P35414) (assay: Intracellular cAMP accumulation assay (APJ hcAMP, HTRF)). Conditions: HEK293 cells stably expressing human APJ receptor; inhibition of forskolin-mediated cAMP production; read-out: Human APJ cAMP EC50 Potency range.
Assay type: cell-based
Procedure: Intracellular cAMP Accumulation Assay
HEK293 cells stably expressing human APJ receptor were used to assess the activity of compounds. Cultured cells were detached and resuspended in the cAMP Homogeneous Time-Resolved Fluorescence (HTRF) assay buffer (Cisbio cat; #62AM4PEJ). The assay was performed in 384-well assay plates (Perkin-Elmer; cat #6008289) according to assay protocol provided by the manufacturer. Serial dilutions of a compound together with assay buffer containing […] and 2 μM forskolin were added to each well containing 5,000 cells and incubated for 30 minutes at room temperature. Subsequently, cAMP D2 reagent was added in the lysis buffer followed by the EuK antibody (Cisbio; cat #62AM4PEJ) and incubated for 60 min. The fluorescence emission ratio was measured using fluorometer. The intracellular cAMP concentrations (compound-stimulated inhibition of forskolin-mediated cAMP production) were calculated by extrapolation from a standard curve using known cAMP concentrations. The EC50 values were obtained by fitting the data to a sigmoidal concentration-response curve with variable slope.

Chain of human APJ receptor (P35414 whole entry): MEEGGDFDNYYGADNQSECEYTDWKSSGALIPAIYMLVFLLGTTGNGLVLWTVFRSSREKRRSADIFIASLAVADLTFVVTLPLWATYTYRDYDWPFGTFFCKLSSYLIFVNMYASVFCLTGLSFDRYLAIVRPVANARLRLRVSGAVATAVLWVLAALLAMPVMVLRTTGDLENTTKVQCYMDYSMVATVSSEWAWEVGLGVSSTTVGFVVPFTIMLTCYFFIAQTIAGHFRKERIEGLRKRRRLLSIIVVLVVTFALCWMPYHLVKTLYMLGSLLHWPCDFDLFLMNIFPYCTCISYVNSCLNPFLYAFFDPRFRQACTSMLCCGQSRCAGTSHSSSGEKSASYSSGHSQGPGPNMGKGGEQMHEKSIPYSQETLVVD

SMILES	EC50
CCCCc1nc(O)c(-c2nnc(Cc3noc4cccnc34)o2)c(O)c1-c1c(OC)cccc1OC [Example 227, 6-butyl-5-(2,6-dimethoxyphenyl)-3-(5-{[1,2]oxazolo[4,5-b]pyridin-3-ylmethyl}-1,3,4-oxadiazol-2-yl)pyridine-2,4-diol]	0.01 to 10 nM
CCOCc1nc(O)c(-c2nnc(Cc3ccc(Cl)cc3)o2)c(O)c1-c1c(OC)cncc1OC [Example 217, 3-{5-[(4-chlorophenyl)methyl]-1,3,4-oxadiazol-2-yl}-5-(3,5-dimethoxypyridin-4-yl)-6-(ethoxymethyl)pyridine-2,4-diol]	10 to 100 nM

Same assay, conditions: HEK293 cells stably expressing human APJ receptor; inhibition of forskolin-mediated cAMP production; read-out: hAPJ cAMP EC50 (nM) Potency range

SMILES	EC50
CCCCc1nc(O)c(-c2nnc(CNC(=O)c3ccccc3)o2)c(O)c1-c1cc(C(C)C)ccc1OC [Example 247, N-[(5-{6-butyl-2,4-dihydroxy-5-[2-methoxy-5-(propan-2-yl)phenyl]pyridin-3-yl}-1,3,4-oxadiazol-2-yl)methyl] benzamide]	0.01 to 10 nM

Same assay, conditions: HEK293 cells stably expressing human APJ receptor; inhibition of forskolin-mediated cAMP production; read-out: hAPJ cAMP EC50 Potency range

SMILES	EC50
CCCCc1nc(O)c(-c2nnc(CCc3nc(-c4cnccn4)no3)o2)c(O)c1-c1c(OC)cccc1OC [Example 52, 6-butyl-5-(2,6-dimethoxyphenyl)-3-(5-{2-[3-(pyrazin-2-yl)-1,2,4-oxadiazol-5-yl]ethyl}-1,3,4-oxadiazol-2-yl)pyridine-2,4-diol]	0.01 to 10 nM
CCCCc1nc(O)c(-c2nnc(-c3cccc(Cl)c3)o2)c(O)c1-c1c(OC)cccc1OC [Example 10, 6-butyl-3-[5-(3-chlorophenyl)-1,3,4-oxadiazol-2-yl]-5-(2,6-dimethoxyphenyl) pyridine-2,4-diol]	10 to 100 nM
CCCCc1nc(O)c(-c2nnc(CNC(=O)c3ccc(Cl)cc3)o2)c(O)c1-c1c(OC)cccc1OC [Example 163, N-({5-[6-butyl-5-(2,6-dimethoxyphenyl)-2,4-dihydroxypyridin-3-yl]-1,3,4-oxadiazol-2-yl}methyl)-4-chlorobenzamide]	0.01 to 10 nM
CCCCc1nc(O)c(-c2nnc(Cc3ccc(F)c(F)c3)o2)c(O)c1-c1c(OC)cccc1OC [Example 38, 6-butyl-3-{5-[(3,4-difluorophenyl)methyl]-1,3,4-oxadiazol-2-yl}-5-(2,6-dimethoxyphenyl) pyridine-2,4-diol]	0.01 to 10 nM
CCCCc1nc(O)c(-c2nnc(Cc3noc4ccccc34)o2)c(O)c1-c1c(OC)cc(C)cc1OC [Example 26, 3-[5-(1,2-benzoxazol-3-ylmethyl)-1,3,4-oxadiazol-2-yl]-6-butyl-5-(2,6-dimethoxy-4-methylphenyl) pyridine-2,4-diol]	0.01 to 10 nM
CCCCc1nc(O)c(-c2nnc(CN3CCCCC3)o2)c(O)c1-c1c(OC)cccc1OC [Example 100, 6-butyl-5-(2,6-dimethoxyphenyl)-3-[5-(piperidin-1-ylmethyl)-1,3,4-oxadiazol-2-yl]pyridine-2,4-diol]	10 to 100 nM
CCOCc1nc(O)c(-c2nnc(Cc3noc(-c4ccccn4)n3)o2)c(O)c1-c1c(OC)cccc1OC [Example 107, 5-(2,6-dimethoxyphenyl)-6-(ethoxymethyl)-3-(5-{[5-(pyridin-2-yl)-1,2,4-oxadiazol-3-yl]methyl}-1,3,4-oxadiazol-2-yl)pyridine-2,4-diol]	0.01 to 10 nM
CCCCc1nc(O)c(-c2nnc(CCc3nc4ccccc4n3C)o2)c(O)c1-c1c(OC)cccc1OC [Example 58, 6-butyl-5-(2,6-dimethoxyphenyl)-3-{5-[2-(1-methyl-1H-1,3-benzodiazol-2-yl)ethyl]-1,3,4-oxadiazol-2-yl}pyridine-2,4-diol]	0.01 to 10 nM
CCCCc1nc(O)c(-c2nnc(Cc3ccc(OC(F)(F)F)cc3)o2)c(O)c1-c1c(OC)cccc1OC [Example 56, 6-butyl-5-(2,6-dimethoxyphenyl)-3-(5-{[4-(trifluoromethoxy)phenyl]methyl}-1,3,4-oxadiazol-2-yl)pyridine-2,4-diol]	0.01 to 10 nM
CCCCc1nc(O)c(-c2nnc(CN(C)C(=O)c3ccncc3)o2)c(O)c1-c1c(OC)cccc1OC [Example 159, N-({5-[6-butyl-5-(2,6-dimethoxyphenyl)-2,4-dihydroxypyridin-3-yl]-1,3,4-oxadiazol-2-yl}methyl)-N-methylpyridine-4-carboxamide]	0.01 to 10 nM
CCCCc1nc(O)c(-c2nnc(CC(=O)NCCF)o2)c(O)c1-c1c(OC)cccc1OC [Example 190, 2-{5-[6-butyl-5-(2,6-dimethoxyphenyl)-2,4-dihydroxypyridin-3-yl]-1,3,4-oxadiazol-2-yl}-N-(2-fluoroethyl) acetamide]	0.01 to 10 nM
CCCCc1nc(O)c(-c2nnc(CCc3ccc(Cl)cc3)o2)c(O)c1-c1c(OC)cccc1OC [Example 68, 6-butyl-3-{5-[2-(4-chlorophenyl)ethyl]-1,3,4-oxadiazol-2-yl}-5-(2,6-dimethoxyphenyl) pyridine-2,4-diol]	0.01 to 10 nM
CCCCc1nc(O)c(-c2nnc(CN3C(=O)CN(C)C3=O)o2)c(O)c1-c1c(OC)cccc1OC [Example 98, 3-({5-[6-butyl-5-(2,6-dimethoxyphenyl)-2,4-dihydroxypyridin-3-yl]-1,3,4-oxadiazol-2-yl}methyl)-1-methyl-imidazolidine-2,4-dione]	0.01 to 10 nM
CCCCc1nc(O)c(-c2nnc(Cc3nc4ccccc4o3)o2)c(O)c1-c1c(OC)cccc1OC [Example 25, 3-[5-(1,3-benzoxazol-2-ylmethyl)-1,3,4-oxadiazol-2-yl]-6-butyl-5-(2,6-dimethoxyphenyl) pyridine-2,4-diol]	0.01 to 10 nM
CCCCc1nc(O)c(-c2nnc(C3(c4ccccc4)CC3)o2)c(O)c1-c1c(OC)cccc1OC [Example 13, 6-butyl-5-(2,6-dimethoxyphenyl)-3-[5-(1-phenylcyclopropyl)-1,3,4-oxadiazol-2-yl]pyridine-2,4-diol]	10 to 100 nM
CCCCc1nc(O)c(-c2nnc(COc3ccccc3)o2)c(O)c1-c1c(OC)cccc1OC [Example 17, 6-butyl-5-(2,6-dimethoxyphenyl)-3-[5-(phenoxymethyl)-1,3,4-oxadiazol-2-yl]pyridine-2,4-diol]	10 to 100 nM
CCCCc1nc(O)c(-c2nnc(CC(=O)NCC)o2)c(O)c1-c1c(OC)cccc1OC [Example 187, 2-{5-[6-butyl-5-(2,6-dimethoxyphenyl)-2,4-dihydroxypyridin-3-yl]-1,3,4-oxadiazol-2-yl}-N-ethylacetamide]	0.01 to 10 nM
CCCCc1nc(O)c(-c2nnc(Cc3ccccc3)o2)c(O)c1-c1c(OC)cc(C)cc1OC [Example 2, 3-(5-benzyl-1,3,4-oxadiazol-2-yl)-6-butyl-5-(2,6-dimethoxy-4-methylphenyl) pyridine-2,4-diol]	100 to 300 nM
CCCCc1nc(O)c(-c2nnc(Cc3noc4ccccc34)o2)c(O)c1-c1c(OC)ccc(F)c1OC (single isomer, unassigned; isomer 1) [Example 220, 3-[5-(1,2-benzoxazol-3-ylmethyl)-1,3,4-oxadiazol-2-yl]-6-butyl-5-(3-fluoro-2,6-dimethoxyphenyl) pyridine-2,4-diol (isomer 1)]	10 to 100 nM
CCCCc1nc(O)c(-c2nnc(Cc3nc(-c4ccccc4)no3)o2)c(O)c1-c1c(OC)cccc1OC [Example 111, 6-butyl-5-(2,6-dimethoxyphenyl)-3-{5-[(3-phenyl-1,2,4-oxadiazol-5-yl)methyl]-1,3,4-oxadiazol-2-yl}pyridine-2,4-diol]	0.01 to 10 nM
CCCCc1nc(O)c(-c2nnc(Cc3ccc(Cl)c(F)c3)o2)c(O)c1-c1c(OC)cccc1OC [Example 71, 6-butyl-3-{5-[(4-chloro-3-fluorophenyl)methyl]-1,3,4-oxadiazol-2-yl}-5-(2,6-dimethoxyphenyl) pyridine-2,4-diol]	0.01 to 10 nM
